One series concerns HepG2 cells. Put plainly: MTT cytotoxicity assay against HepG2 cell line. The series is classed as cell-based. Particulars: Homo sapiens, mean of three independent replicates ± SE. The protocol:
Cytotoxic activity was carried out using MTT colorimetric antiproliferative assay to investigate the effect of the prepared molecules on HepG2 as well as HL-7702 cell lines. See Section 4.3.1 in Supplementary Data.
4.3.1. Cytotoxic activity evaluation
To measure the cytotoxic actvity of the amide derivatives 2-6e in hepatocellular carcinoma (HepG2) cell line (ATCC Cat No. HB-8065) as well as normal human liver cell line HL-7702 (ATCC Cat. No. 77402), cell viability assay was assessed using MTT assay method. Cells at density of 1 x 104 were seeded in a 96-well plate at 37 °C for 24 h under 5% CO2. After incubation, the cells were treated with different concentrations of the test schiff bases 2-6e and incubated for 24 h, then 20 µl of MTT solution at 5 mg/mL was applied and incubated for 4 h at 37 °C . Dimethyl sulphoxide (DMSO) in volume of 100 µl was added to each well to dissolve the purple formazan that had formed. The color intensity of the formazan product, which represents the growth condition of the cells, is quantified by using an ELISA plate reader (EXL 800, USA) at 450 nm absorbance. The experimental conditions were carried out with at least three replicates, and the experiments were repeated at least three times. […]
(In general: Formazan colour is commonly taken as a measure of viable cells.)

The structures appear in SMILES notation.

A word on the IC50: it is the concentration that gives 50% inhibition. Lower therefore signals greater potency in that assay. As usually defined, the melting point is the temperature, or range, at which the solid turns liquid. `COc1cc(C(=O)NC(=Cc2ccco2)C(=O)Nc2cccc(Cl)c2)cc(OC)c1OC` [Compound 2a, N-(3-(3-chlorophenylamino)-1-(furan-2-yl)-3-oxoprop-1-en-2-yl)-3,4,5-trimethoxybenzamide] came in with a melting point of 248 to 250 °C. The IC50 with HepG2 cells is 68.9 ± 3.32 µM. In the same order, the values of `COc1cc(C=C(NC(=O)c2cc(OC)c(OC)c(OC)c2)C(=O)NNC(=O)/C(=C/c2ccco2)NC(=O)c2cc(OC)c(OC)c(OC)c2)cc(OC)c1OC` [Compound 6e, N-(3-(2-((Z)-3-(furan-2-yl)-2-(3,4,5-trimethoxybenzamido)acryloyl)hydrazinyl)-3-oxo-1-(3,4,5-trimethoxyphenyl)prop-1-en-2-yl)-3,4,5-trimethoxybenzamide] are 212 to 214 °C and 3.98 ± 0.09 µM. In the same order, the values of `COc1cc(C(=O)NC(=Cc2ccco2)C(=O)NNC(=O)c2cccc(O)c2)cc(OC)c1OC` [Compound 4a, N-(1-(furan-2-yl)-3-(2-(3-hydroxybenzoyl)hydrazinyl)-3-oxoprop-1-en-2-yl)-3,4,5-trimethoxybenzamide] are 235 to 237 °C and 13.4 ± 0.56 µM.

On to `COc1cc(C(=O)NC(=Cc2ccco2)C(=O)Nc2ccc(C)cc2)cc(OC)c1OC` [Compound 2c, N-(1-(furan-2-yl)-3-oxo-3-(p-tolylamino)prop-1-en-2-yl)-3,4,5-trimethoxybenzamide], for which the melting point was 261 to 263 °C. Further, the IC50 in the series on HepG2 cells came out at 22 ± 0.96 µM. In turn, `COc1ccc(C=C(NC(=O)c2cc(OC)c(OC)c(OC)c2)C(=O)NNC(=O)/C(=C/c2ccco2)NC(=O)c2cc(OC)c(OC)c(OC)c2)cc1` [Compound 6d, N-(3-(2-((Z)-3-(furan-2-yl)-2-(3,4,5-trimethoxybenzamido)acryloyl)hydrazinyl)-1-(4-methoxyphenyl)-3-oxoprop-1-en-2-yl)-3,4,5-trimethoxybenzamide] displayed a melting point of 206 to 208 °C. Besides, in the series on HepG2 cells, the IC50 was 3.81 ± 0.18 µM. On to `COc1cc(C(=O)NC(=Cc2ccco2)C(=O)NNC(=O)c2ccc(NC(=O)c3cccnc3)cc2)cc(OC)c1OC` [Compound 5, N-(4-(2-(3-(furan-2-yl)-2-(3,4,5 trimethoxybenzamido)acryloyl)hydrazinecarbonyl)phenyl)nicotinamide], for which the melting point lay within 217 to 219 °C. The same compound gave an IC50 with HepG2 cells of 3.25 ± 0.25 µM. `COc1cc(C(=O)NC(=Cc2ccco2)C(=O)Nc2ccc3ccccc3c2)cc(OC)c1OC` [Compound 3, N-(1-(furan-2-yl)-3-(naphthalen-2-ylamino)-3-oxoprop-1-en-2-yl)-3,4,5-trimethoxybenzamide] displayed an IC50 in the series on HepG2 cells of 16.2 ± 0.79 µM.

As for `COc1cc(C(=O)NC(=Cc2ccco2)C(=O)NNC(=O)c2ccncc2)cc(OC)c1OC` [Compound 4b, N-(1-(furan-2-yl)-3-(2-isonicotinoylhydrazinyl)-3-oxoprop-1-en-2-yl)-3,4,5-trimethoxybenzamide], the melting point fell in the range of 228 to 230 °C. The compound also came in with an IC50 with HepG2 cells of 8.36 ± 0.51 µM. In the same order, the values of `COc1cc(C(=O)NC(=Cc2ccco2)C(=O)Nc2ccc(Cl)cc2)cc(OC)c1OC` [Compound 2b, N-(3-(4-chlorophenylamino)-1-(furan-2-yl)-3-oxoprop-1-en-2-yl)-3,4,5-trimethoxybenzamide] are 241 to 243 °C and 23.3 ± 1.03 µM.

`O=C(CCCCCCC(=O)Nc1ccccc1)NO` [SAHA, suberoylanilide hydroxamic acid, reference compound] gave an IC50 with HepG2 cells of 2.91 ± 0.15 µM. Compound `COc1cc(C(=O)NC(=Cc2ccco2)C(=O)Nc2ccc3ccccc3c2)cc(OC)c1OC` (hydrate or solvate) [Compound 3, N-(1-(furan-2-yl)-3-(naphthalen-2-ylamino)-3-oxoprop-1-en-2-yl)-3,4,5-trimethoxybenzamide] returned a melting point of 270 to 272 °C.

These data come from PMC9227250, “Design, Synthesis and Cytotoxic Activity Evaluation of Newly Synthesized Amides-Based TMP Moiety as Potential Anticancer Agents over HepG2 Cells” (Molecules, 2022).
